Reference: patent US10227331B2 (priority 2015, dated 2019)

Legend:
NDM-1 = NDM-1 (Klebsiella pneumoniae, UniProt C7C422); test: biochemical; type: biochemical; conditions: CCF2-FA substrate, 2 hours at 25° C; read-out: NDM-1 IC50
Outline: (§1)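 IC50 values derive from 4-parameter fits of percent inhibition against inhibitor concentration on semi-log axes. Activity was monitored by fluorescence with the CCF2-FA substrate after a 2-hour, 25° C incubation of compound, enzyme and substrate.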

IMP-1 = IMP-1 (Serratia marcescens, UniProt P52699); test: biochemical; type: biochemical; conditions: CCF2-FA substrate, 2 hours at 25° C; read-out: IMP-1 IC50
IMP-1, sequence (P52699 whole entry, looked up, species assumed): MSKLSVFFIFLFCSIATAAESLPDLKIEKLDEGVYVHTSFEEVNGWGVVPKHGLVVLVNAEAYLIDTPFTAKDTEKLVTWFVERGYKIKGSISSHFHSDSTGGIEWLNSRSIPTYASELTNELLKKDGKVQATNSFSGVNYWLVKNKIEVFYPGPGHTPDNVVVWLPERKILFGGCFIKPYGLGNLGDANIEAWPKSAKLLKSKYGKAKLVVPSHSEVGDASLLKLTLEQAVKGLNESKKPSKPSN
Outline: as §1

[1] = tested on: P. aeruginosa expressing IMP-1, efflux+ (MB9798); type: cell-based, Pseudomonas aeruginosa; conditions: for P. aeruginosa expressing IMP-1, efflux+ (MB9798) MITC95: imipenem at 2 μg/mL, in the presence of a class A, C, D serine β-lactamase inhibitor closely related to relebactam; for Efflux ratio: ratio MITC95 PA_9798/MITC95 PA_9799
Description: (§2) The strain background is Pseudomonas aeruginosa PAO1.

[2] = tested on: Escherichia coli expressing NDM-1 (CLB30005, CLB30016); type: cell-based; conditions: with imipenem 1 μg/ml, 95% inhibition of bacterial growth; for Escherichia coli MITC95: NDM-1 (CLB30016)
Outline: (§3)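 Restoration of imipenem susceptibility (1 μg/ml imipenem) was judged by absorbance after 22–24 h at 35° C. Test compound was added to bacteria suspended 1:100 in 1.1× CAMHB from overnight blood-agar cultures.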

[3] = tested on: Klebsiella pneumoniae expressing VIM-1 (IHMA599644); type: cell-based; conditions: with imipenem 1 μg/ml, 95% inhibition of bacterial growth; for Klebsiella pneumoniae MITC95: VIM-1 (IHMA599644)
Outline: as §3

[4] = tested on: Serratia marcescens expressing IMP-1 (CL5741); type: cell-based; conditions: with imipenem 1 μg/ml, 95% inhibition of bacterial growth; for Serratia marcescens MITC95: IMP-1 (CL5741)
Outline: as §3

VIM-1 = VIM-1 (Pseudomonas aeruginosa (strain ATCC 15692 / DSM 22644 / CIP 104116 / JCM 14847 / LMG 12228 / 1C / PRS 101 / PAO1), UniProt A0A0F7KYQ8); test: biochemical; conditions: CCF2-FA substrate, 2 hours at 25° C
Outline: as §1

[5] = tested on: P. aeruginosa expressing IMP-1, efflux− (MB9799); test: Efflux: concentration of MBL inhibitor which restores susceptibility to imipenem; type: cell-based, Pseudomonas aeruginosa; conditions: imipenem at 2 μg/mL, in the presence of a class A, C, D serine β-lactamase inhibitor closely related to relebactam
Description: as §2

NDM-1, sequence (C7C422 whole entry, looked up, species assumed): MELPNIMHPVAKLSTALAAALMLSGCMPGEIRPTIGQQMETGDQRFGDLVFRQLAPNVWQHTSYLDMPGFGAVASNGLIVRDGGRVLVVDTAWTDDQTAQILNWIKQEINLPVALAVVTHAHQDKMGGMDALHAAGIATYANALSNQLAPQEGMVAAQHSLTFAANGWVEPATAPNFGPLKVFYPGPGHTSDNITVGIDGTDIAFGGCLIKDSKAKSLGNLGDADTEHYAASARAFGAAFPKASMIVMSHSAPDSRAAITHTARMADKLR

SMILES | IC50 (NDM-1) [nM] | IC50 (IMP-1) [nM] | P. aeruginosa expressing IMP-1, efflux+ (MB9798) MITC95 [1] [µM] | Efflux ratio [1] | Escherichia coli MITC95 [2] [µM] | Klebsiella pneumoniae MITC95 [3] [µM] | Serratia marcescens MITC95 [4] [µM] | IC50 (VIM-1) [nM] | P. aeruginosa expressing IMP-1, efflux− (MB9799) MITC95 [5] [µM] | Escherichia coli expressing NDM-1 (CLB30016) MITC95 [2] [µM] | Klebsiella pneumoniae expressing VIM-1 (IHMA599644) MITC95 [3] [µM] | Serratia marcescens expressing IMP-1 (CL5741) MITC95 [4] [µM]
NCCS(=O)(=O)c1ccc(-c2cccc(C(=O)N[C@H]3CCNC3)c2N)c(-c2nn[nH]n2)c1S(N)(=O)=O [Example 376, (S)-2-Amino-4′-((2-aminoethyl)sulfonyl)-N-(pyrrolidin-3-yl)-3′-sulfamoyl-2′-(2H-tetrazol-5-yl)-[1,1′-biphenyl]-3-carboxamide] | 2.92 | 2.58 | 3.125 | 2.00 | 3.125 | 1.563 | 1.563 | 0.539 | 1.563 | – | – | –
CCOC(=O)Nc1nc2c(-c3ccc(S(=O)(=O)CCN)c(S(N)(=O)=O)c3-c3nn[nH]n3)cccc2s1 [Example 84, ethyl 4-(4-(2-aminoethylsulfonyl)-3-sulfamoyl-2-(2H-tetrazol-5-yl)phenyl)benzo[d]thiazol-2-ylcarbamate] | 0.0781 | 0.145 | 6.25 | 4.00 | – | – | – | 0.14 | 1.563 | 1.563 | 3.125 | 1.563
NCCS(=O)(=O)c1ccc(-c2cncc(CO)c2)c(-c2nnn[nH]2)c1S(N)(=O)=O.O=C(O)C(F)(F)F [Example 143, 2-((4-(5-(hydroxymethyl)pyridin-3-yl)-2-sulfamoyl-3-(1H-tetrazol-5-yl)phenyl)sulfonyl)ethanaminium 2,2,2-trifluoroacetate] | 11.2 | 8.83 | 12.5 | 8.00 | – | – | – | 2.02 | 1.563 | 1.563 | 3.125 | 3.125
N=C(N)c1nc2c(-c3ccc(S(=O)(=O)CCN)c(S(N)(=O)=O)c3-c3nn[nH]n3)cccc2s1 [Example 86, 4-(4-(2-aminoethylsulfonyl)-3-sulfamoyl-2-(2H-tetrazol-5-yl)phenyl)benzo[d]thiazole-2-carboximidamide] | 0.295 | 0.869 | 1.563 | 4.00 | – | – | – | 0.141 | 0.3906 | 0.7813 | 0.7813 | 0.7813
NCCS(=O)(=O)c1ccc(-c2cccc3sc(NC(N)=O)nc23)c(-c2nn[nH]n2)c1S(N)(=O)=O [Example 85, 6-(2-aminoethylsulfonyl)-2-(2H-tetrazol-5-yl)-3-(2-ureidobenzo[d]thiazol-4-yl)benzenesulfonamide] | 0.0511 | 0.144 | 1.563 | 2.00 | – | – | – | 0.0858 | 0.7813 | 0.3906 | 1.563 | 0.7813
NC[C@@H](CO)S(=O)(=O)c1ccc(-c2cccc3nc(N)[nH]c23)c(-c2nn[nH]n2)c1S(N)(=O)=O [Example 358, (S)-3-(2-amino-1H-benzo[d]imidazol-7-yl)-6-((1-amino-3-hydroxypropan-2-yl)sulfonyl)-2-(1H-tetrazol-5-yl) benzenesulfonamide] | 0.221 | 1.15 | 0.7813 | 1.00 | 0.7813 | 1.563 | 0.7813 | 0.789 | 0.7813 | – | – | –
C[C@H](CN)S(=O)(=O)c1ccc(-c2cccc3sc(N)nc23)c(-c2nn[nH]n2)c1S(N)(=O)=O [Example 285, 3-(2-aminobenzo[d]thiazol-4-yl)-6-((R)-1-aminopropan-2-ylsulfonyl)-2-(2H-tetrazol-5-yl)benzenesulfonamide] | 0.37 | 0.534 | 3.125 | 4.00 | 3.125 | 1.563 | 1.563 | 0.364 | 0.7813 | – | – | –
Nc1ccc2c(-c3ccc(S(=O)(=O)C4CNC4)c(S(N)(=O)=O)c3-c3nnn[nH]3)ccnc2n1 [Example 27, 3-(7-amino-1,8-naphthyridin-4-yl)-6-(azetidin-3-ylsulfonyl)-2-(1H-tetrazol-5-yl)benzenesulfonamide] | 0.185 | 1.75 | 6.25 | 4.00 | – | – | – | 0.33 | 1.563 | 6.25 | 3.125 | 3.125
NS(=O)(=O)c1c(S(=O)(=O)C2CNC2)ccc(-c2cccc3scnc23)c1-c1nn[nH]n1 [Example 201, 6-(Azetidin-3-ylsulfonyl)-3-(benzo[d]thiazol-4-yl)-2-(2H-tetrazol-5-yl)benzenesulfonamide] | 0.0956 | 0.153 | 1.563 | 2.00 | – | – | – | 0.176 | 0.7813 | 0.7813 | 3.125 | 1.563
NCCS(=O)(=O)c1ccc(-c2cnc3[nH]ccc3c2)c(-c2nnn[nH]2)c1S(N)(=O)=O.O=C(O)C(F)(F)F [Example 149, 2-((4-(1H-pyrrolo[2,3-b]pyridin-5-yl)-2-sulfamoyl-3-(1H-tetrazol-5-yl)phenyl)sulfonyl)ethanaminium 2,2,2-trifluoroacetate] | 0.534 | 0.856 | 6.25 | 8.00 | – | – | – | 0.185 | 0.7813 | 1.563 | 3.125 | 3.125
NCc1nc2c(-c3ccc(S(=O)(=O)C[C@H](O)CN)c(S(N)(=O)=O)c3-c3nn[nH]n3)cccc2[nH]1 [Example 370, (R)-6-((3-amino-2-hydroxypropyl)sulfonyl)-3-(2-(aminomethyl)-1H-benzo[d]imidazol-4-yl)-2-(2H-tetrazol-5-yl) benzenesulfonamide] | 0.361 | 1.25 | 0.7813 | 1.00 | 0.7813 | 1.563 | 0.7813 | 0.393 | 0.7813 | – | – | –
